In patent US7235548B2, “Compounds and their use as positive AMPA receptor modulators” (NeuroSearch A/S, priority 1998, dated 2007):

Columns and labels:
AMPA receptor = assay: Voltage clamp (whole cell patch clamp), current induced by AMPA in cultured mouse neocortical neurons; assay type: cell-based; conditions: for reversibility of the potentiation: after wash out of the compound; for potentiation of the current induced by application of 30 μM AMPA: holding voltage −60 mV
Procedure: Experiments were performed in voltage clamp using conventional whole cell patch clamp methods (Hamill et al., 1981), essentially as described previously (Mathiesen et al., 1998). The following salt solutions were used (mM): NaCl (140), KCl (4), CaCl2 (2), MgCl2 (1), Sucrose (30), Tetrodotoxin (0.0003), Bicuculline Methiodide (0.005) and HEPES (10, pH 7.4). Intracellular solution (mM): CsCl (120), CsF (20), MgCl2 (2), EGTA (10), HEPES (10, pH=7.2).
Mouse neocortical neurons were cultured essentially as described by Drejer et al. (1987). Briefly, the forebrains from embryonic (E17) NMRI mice were removed under sterile conditions. The tissue was chopped in 0.4 mm cubes and the triturated with trypsin (12.5 μg/ml) and DNAse (2.5 μg/ml), 15 min, 37° C. The cells were suspended at a concentration of 1×10^6 cells/ml in a slightly modified DMEM which contained horse serum (10% (v/v)), penicillin (333 U/ml), paraaminobenzoic acid (1 mg/ml), L-glutamine (0.5 mM), insulin (0.08 U/ml) and KCl (23.8 mM). The cell suspension was subsequently inoculated into poly-L-lysine coated 35 mm Petri dishes (2 ml/dish). Glass coverslips (3.5 mm) were placed in the dishes before coating. After 24 hr in culture, the medium was replaced by freshly made medium containing 1% N2 supplement instead of serum.
The cells were kept in culture for 7–14 days at 37° C. (5% CO2/95% O2) before experiments were carried out.
Electronics, programs and data acquisition: The amplifier used was the EPC-9 (HEKA-electronics, Lambrect, Germany) run by a Power Macintosh G3 computer via an ITC-16 interface. Experimental conditions were set with the Pulse-software accompanying the amplifier. Data were low pass filtered and sampled directly to hard-disk at a rate of 3 times the cut-off frequency.
Pipettes and electrodes: Pipettes were pulled from borosilicate glass (Modulohm, Copenhagen, Denmark) using a horizontal electrode puller (Zeitz-Instrumente, Augsburg, Germany). The pipette resistances were 1.7–2.4 MW in the salt solutions used in these experiments. The pipette electrode was a chloridized silver wire, and the reference was a silverchloride pellet electrode (In Vivo Metric, Healdsburg, USA) fixed to the experimental chamber. The electrodes were zeroed with the open pipette in the bath just prior to sealing.
Experimental procedure: Coverslips were transferred to a […] experimental chamber mounted on the stage of an inverted microscope (IMT-2, Olympus) supplied with Nomarski optics. The neurons were continuously superfused with extracellular saline at a rate of 2.5 ml/min. After giga-seal formation (1–5 GW, success-rate≈90%) the whole cell configuration was attained by suction.
The cells were held at a holding voltage of −60 mV and at the start of each experiment the current was continuously measured for at least 30 sec to ensure a stable leak current. AMPA-containing solutions were delivered to the chamber through a custom-made gravity-driven flowpipe, the tip of which was placed approximately 50 μm from the cell. Application was triggered when the tubing connected to the flow pipe was compressed by a valve controlled by the Pulse-software. AMPA (30 μM) was applied for 1 sec every 45 sec. After obtainment of responses of a repeatable amplitude the compound to be tested was included in both the chamber and in the AMPA-containing solution. The compound was present until responses of a new repeatable was obtained.
The sample interval in all experiments was 310 μsec.
All experiments were performed at room temperature (20–25° C.).

[1] = test system: AMPA induced [3H]GABA release from cultured cortical neurons; assay: Potentiation of AMPA induced [3H]GABA release from cultured cortical neurons; assay type: cell-based, mouse; conditions: 5 μM AMPA; expressed relative to potentiation induced by 30 μM cyclothiazide; FIGS. 1 and 2
Procedure: Neurons which express receptors for excitatory amino acids can be depolarized by such compounds and this depolariztion will ultimately lead to a release of transmitter substance from the neurons. Cultured neurons obtained from 16-day-old mouse embryo cortex are mainly GABAergic and express all types of excitatory amino acid receptors. This means that they can be stimulated by high potassium (55 mM) or by the excitatory amino acids NMDA (20 μM), AMPA (5 μM) and kainate (5 μM) to release their neurotransmitter GABA.
^3H-GABA may be used to label the GABA transmitter pool in the neurons and the release of ^3H-GABA from the neurons may be used as a simple functional model for studies of the effects of excitatory amino acid receptor agonists, antagonists, and modulators.
Cerebral cortices of 15–16 day-old NMRI mouse embryos are chopped in 0.4×0.4 mm cubes and the tissue is dissociated by mild trypsinization (0.1% (wt/vol) trypsin, 37° C., 10 min). Subsequently the cell suspension (3 mill/ml) is inoculated into poly-L-lysine-coated 30 mm Petri dishes (3 ml/dish) containing a slightly modified DMEM (24.5 mM KCl) supplemented with p-aminobenzoate (7 μM), insulin (100 mU/L) and 10% (vol/vol) horse serum. Cells are maintained in culture for 5–7 days with the addition of the antimitotic agent cytosine arbinoside (5 μM) from day 2 in vitro to prevent glial proliferation. […]

SMILES | reversibility of the potentiation (AMPA receptor) | persistence of the effect after wash out (AMPA receptor; compound 3 μM) | potentiation of the current induced by application of 30 μM AMPA (AMPA receptor; compound 3 μM) | potentiation of AMPA induced [3H]GABA release [1] | concentration dependence of the effect (AMPA receptor; FIG. 8) | potentiation of the current induced by application of 30 μM AMPA (AMPA receptor; compound 10 μM)
O=S1(=O)NC(C2CCCCC2)Nc2ccc(S(=O)(=O)N3CCOCC3)cc21 (stereo not shown) [Compound 63, 3-Cyclohexyl-7-morpholinosulfonyl-1,2,3,4-tetrahydro-1,2,4-benzothiadiazine-1,1-dioxide] | reversible | persits for several minutes after wash out | potentiated | – | – | –
Cc1cc2c(cc1S(=O)(=O)N1CCCCC1)S(=O)(=O)NC(C1CCCC1)N2 (stereo not shown) [Compound 114, 3-Cyclopentyl-6-methyl-7-piperidinosulfonyl-1,2,3,4-tetrahydro-1,2,4-benzothia-diazine-1,1-dioxide] | reversible | – | potentiated | potentiation | concentration-dependent | –
Cc1cc2c(cc1S(=O)(=O)N1CCOCC1)S(=O)(=O)NC(C1CCCCC1)N2 (stereo not shown) [Compound 115, 3-Cyclohexyl-6-methyl-7-morpholinosulfonyl-1,2,3,4-tetrahydro-1,2,4-benzothiadiazine-1,1-dioxide] | reversible | – | – | potentiation | – | potentiated
